# Measurements as given in PMC6591251, “Discovery of potent necroptosis inhibitors targeting RIPK1 kinase activity for the treatment of inflammatory disorder and cancer metastasis” (Cell Death & Disease, 2019).
# What was measured:
# Test in all cases: RBC kinase panel
# Assay type in all cases: biochemical
# Settings in all cases: ATP 10 μM, Data1, Data2
# ACK1 = target: T1, ACK1 (Homo sapiens, UniProt Q07912)
# T1 construct: purchased Reaction Biology Corporation
# Description: (§1) PK68 was tested at 1 μM in duplicate against a panel of 369 human kinases at Reaction Biology Corporation. Results are viewed in the human kinome phylogenetic tree.
# (§2) ^a Compound PK68 was tested at 1 μM in duplicate against 369 kinases using the RBC kinase panel service of Reaction Biology Corporation. All the ATP concentrations used were 10 μM. […] Full protocol details are available at http://www.reactionbiology.com.
# ALK = target: T2, ALK (Homo sapiens, UniProt Q9UM73)
# T2 construct: purchased Reaction Biology Corporation
# Description: as §1, §2
# ALK2/ACVR1 = target: T3, ALK2/ACVR1 (Homo sapiens, UniProt Q04771)
# T3 construct: purchased Reaction Biology Corporation
# Description: as §1, §2
# Aurora A = target: T4, Aurora A (Homo sapiens, UniProt O14965)
# T4 construct: purchased Reaction Biology Corporation
# Description: as §1, §2
# BMPR2 = target: T5, BMPR2 (Homo sapiens, UniProt Q13873)
# T5 construct: purchased Reaction Biology Corporation
# Description: as §1, §2
# CAMK4 = target: T6, CAMK4 (Homo sapiens, UniProt Q16566)
# T6 construct: purchased Reaction Biology Corporation
# Description: as §1, §2
# CDK5/p25 = target: T7, CDK5/p25 (Homo sapiens, UniProt Q00535)
# T7 construct: purchased Reaction Biology Corporation
# Description: as §1, §2
# CDK9/cyclin T2 = target: T8, CDK9/cyclin T2 (Homo sapiens, UniProt P50750)
# T8 construct: purchased Reaction Biology Corporation
# Description: as §1, §2
# CTK/MATK = target: T9, CTK/MATK (Homo sapiens, UniProt P42679)
# T9 construct: purchased Reaction Biology Corporation
# Description: as §1, §2
# DAPK1 = target: T10, DAPK1 (Homo sapiens, UniProt P53355)
# T10 construct: purchased Reaction Biology Corporation
# Description: as §1, §2
# DDR1 = target: T11, DDR1 (Homo sapiens, UniProt Q08345)
# T11 construct: purchased Reaction Biology Corporation
# Description: as §1, §2
# DDR2 = target: T12, DDR2 (Homo sapiens, UniProt Q16832)
# T12 construct: purchased Reaction Biology Corporation
# Description: as §1, §2
# EPHA3 = target: T13, EPHA3 (Homo sapiens, UniProt P29320)
# T13 construct: purchased Reaction Biology Corporation
# Description: as §1, §2
# IR = target: T14, IR (Homo sapiens, UniProt P06213)
# T14 construct: purchased Reaction Biology Corporation
# Description: as §1, §2
# JAK2 = target: T15, JAK2 (Homo sapiens, UniProt O60674)
# T15 construct: purchased Reaction Biology Corporation
# Description: as §1, §2
# JNK2 = target: T16, JNK2 (Homo sapiens, UniProt P45984)
# T16 construct: purchased Reaction Biology Corporation
# Description: as §1, §2
# KDR/VEGFR2 = target: T17, KDR/VEGFR2 (Homo sapiens, UniProt P35968)
# T17 construct: purchased Reaction Biology Corporation
# Description: as §1, §2
# LKB1 = target: T18, LKB1 (Homo sapiens, UniProt Q15831)
# T18 construct: purchased Reaction Biology Corporation
# Description: as §1, §2
# MAPKAPK3 = target: T19, MAPKAPK3 (Homo sapiens, UniProt Q16644)
# T19 construct: purchased Reaction Biology Corporation
# Description: as §1, §2
# MKK6 = target: T20, MKK6 (Homo sapiens, UniProt P52564)
# T20 construct: purchased Reaction Biology Corporation
# Description: as §1, §2
# MRCKa/CDC42BPA = target: T21, MRCKa/CDC42BPA (Homo sapiens, UniProt Q5VT25)
# T21 construct: purchased Reaction Biology Corporation
# Description: as §1, §2
# MSK2/RPS6KA4 = target: T22, MSK2/RPS6KA4 (Homo sapiens, UniProt O75676)
# T22 construct: purchased Reaction Biology Corporation
# Description: as §1, §2
# MST3/STK24 = target: T23, MST3/STK24 (Homo sapiens, UniProt Q9Y6E0)
# T23 construct: purchased Reaction Biology Corporation
# Description: as §1, §2
# P38b/MAPK11 = target: T24, P38b/MAPK11 (Homo sapiens, UniProt Q15759)
# T24 construct: purchased Reaction Biology Corporation
# Description: as §1, §2
# PAK2 = target: T25, PAK2 (Homo sapiens, UniProt Q13177)
# T25 construct: purchased Reaction Biology Corporation
# Description: as §1, §2
# PHKg2 = target: T26, PHKg2 (Homo sapiens, UniProt P15735)
# T26 construct: purchased Reaction Biology Corporation
# Description: as §1, §2
# PIM3 = target: T27, PIM3 (Homo sapiens, UniProt Q86V86)
# T27 construct: purchased Reaction Biology Corporation
# Description: as §1, §2
# PKCg = target: T28, PKCg (Homo sapiens, UniProt P05129)
# T28 construct: purchased Reaction Biology Corporation
# Description: as §1, §2
# PKG1a = target: T29, PKG1a (Homo sapiens, UniProt Q13976)
# T29 construct: purchased Reaction Biology Corporation
# Description: as §1, §2
# RON/MST1R = target: T30, RON/MST1R (Homo sapiens, UniProt Q04912)
# T30 construct: purchased Reaction Biology Corporation
# Description: as §1, §2
# RSK4 = target: T31, RSK4 (Homo sapiens, UniProt Q9UK32)
# T31 construct: purchased Reaction Biology Corporation
# Description: as §1, §2
# SGK2 = target: T32, SGK2 (Homo sapiens, UniProt Q9HBY8)
# T32 construct: purchased Reaction Biology Corporation
# Description: as §1, §2
# WEE1 = target: T33, WEE1 (Homo sapiens, UniProt P30291)
# T33 construct: purchased Reaction Biology Corporation
# Description: as §1, §2
# T19 sequence (Q16644 whole entry): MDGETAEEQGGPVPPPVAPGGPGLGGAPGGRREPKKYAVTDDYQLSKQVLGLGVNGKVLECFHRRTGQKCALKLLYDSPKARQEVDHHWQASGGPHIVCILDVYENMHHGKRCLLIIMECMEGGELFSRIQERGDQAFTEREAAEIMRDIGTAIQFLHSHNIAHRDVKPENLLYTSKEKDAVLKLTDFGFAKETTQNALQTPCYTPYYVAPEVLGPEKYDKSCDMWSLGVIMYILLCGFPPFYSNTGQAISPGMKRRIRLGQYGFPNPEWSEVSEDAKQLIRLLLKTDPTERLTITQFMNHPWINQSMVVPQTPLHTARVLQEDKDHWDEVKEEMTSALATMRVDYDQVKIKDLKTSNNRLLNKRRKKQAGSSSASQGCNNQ
# T23 sequence (Q9Y6E0 whole entry): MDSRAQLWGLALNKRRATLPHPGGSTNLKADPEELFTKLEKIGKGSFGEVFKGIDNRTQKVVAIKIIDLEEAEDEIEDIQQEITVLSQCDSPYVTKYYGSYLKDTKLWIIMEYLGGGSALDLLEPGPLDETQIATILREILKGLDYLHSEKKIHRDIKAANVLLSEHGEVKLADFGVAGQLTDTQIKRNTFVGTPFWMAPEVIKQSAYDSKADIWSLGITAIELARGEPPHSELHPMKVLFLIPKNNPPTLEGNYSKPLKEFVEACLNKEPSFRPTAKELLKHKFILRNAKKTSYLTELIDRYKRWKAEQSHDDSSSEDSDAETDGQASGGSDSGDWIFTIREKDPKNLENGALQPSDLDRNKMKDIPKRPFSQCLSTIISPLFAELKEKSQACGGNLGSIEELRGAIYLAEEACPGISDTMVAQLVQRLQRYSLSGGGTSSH
# T1 sequence (Q07912 whole entry): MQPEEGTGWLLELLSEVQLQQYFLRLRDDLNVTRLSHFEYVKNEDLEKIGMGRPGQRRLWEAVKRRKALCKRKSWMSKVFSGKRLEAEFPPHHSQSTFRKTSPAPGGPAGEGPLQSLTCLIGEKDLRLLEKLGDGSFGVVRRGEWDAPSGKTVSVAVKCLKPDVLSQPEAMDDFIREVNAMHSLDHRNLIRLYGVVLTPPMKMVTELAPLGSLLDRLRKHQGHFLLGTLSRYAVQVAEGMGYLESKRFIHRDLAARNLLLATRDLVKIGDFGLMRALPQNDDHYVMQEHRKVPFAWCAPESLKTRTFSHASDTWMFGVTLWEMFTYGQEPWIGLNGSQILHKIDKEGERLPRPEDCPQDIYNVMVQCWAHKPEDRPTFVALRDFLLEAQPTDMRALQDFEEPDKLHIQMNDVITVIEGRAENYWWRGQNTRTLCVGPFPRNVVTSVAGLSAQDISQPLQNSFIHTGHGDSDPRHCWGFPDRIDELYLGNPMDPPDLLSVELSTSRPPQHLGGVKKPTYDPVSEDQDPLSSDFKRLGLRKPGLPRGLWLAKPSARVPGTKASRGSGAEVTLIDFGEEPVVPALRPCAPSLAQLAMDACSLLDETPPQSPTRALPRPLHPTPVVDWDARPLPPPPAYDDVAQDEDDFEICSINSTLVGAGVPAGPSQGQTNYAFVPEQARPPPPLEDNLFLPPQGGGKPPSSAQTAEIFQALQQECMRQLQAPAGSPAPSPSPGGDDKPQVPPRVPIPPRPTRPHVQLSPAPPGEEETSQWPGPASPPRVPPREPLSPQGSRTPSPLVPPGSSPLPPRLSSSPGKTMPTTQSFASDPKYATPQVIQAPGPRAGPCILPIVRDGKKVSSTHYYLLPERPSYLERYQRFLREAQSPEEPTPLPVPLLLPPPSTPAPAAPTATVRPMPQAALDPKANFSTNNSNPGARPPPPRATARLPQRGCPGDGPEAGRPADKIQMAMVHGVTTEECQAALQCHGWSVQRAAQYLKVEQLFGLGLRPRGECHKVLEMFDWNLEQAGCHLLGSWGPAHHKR
# T25 sequence (Q13177 whole entry): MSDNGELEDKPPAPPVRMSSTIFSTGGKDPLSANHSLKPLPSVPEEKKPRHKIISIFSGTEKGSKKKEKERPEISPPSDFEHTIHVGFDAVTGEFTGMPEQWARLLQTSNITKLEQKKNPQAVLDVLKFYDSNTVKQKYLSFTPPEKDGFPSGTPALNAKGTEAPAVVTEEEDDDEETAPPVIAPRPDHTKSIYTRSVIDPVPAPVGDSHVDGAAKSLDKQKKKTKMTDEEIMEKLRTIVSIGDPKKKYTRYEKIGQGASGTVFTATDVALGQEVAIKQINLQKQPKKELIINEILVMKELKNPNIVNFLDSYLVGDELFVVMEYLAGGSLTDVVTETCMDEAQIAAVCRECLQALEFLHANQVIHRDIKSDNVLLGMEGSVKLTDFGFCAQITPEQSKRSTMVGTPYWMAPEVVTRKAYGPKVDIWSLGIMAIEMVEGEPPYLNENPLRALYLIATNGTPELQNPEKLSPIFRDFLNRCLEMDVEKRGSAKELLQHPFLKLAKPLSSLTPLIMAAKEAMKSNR
# T13 sequence (P29320 21-983): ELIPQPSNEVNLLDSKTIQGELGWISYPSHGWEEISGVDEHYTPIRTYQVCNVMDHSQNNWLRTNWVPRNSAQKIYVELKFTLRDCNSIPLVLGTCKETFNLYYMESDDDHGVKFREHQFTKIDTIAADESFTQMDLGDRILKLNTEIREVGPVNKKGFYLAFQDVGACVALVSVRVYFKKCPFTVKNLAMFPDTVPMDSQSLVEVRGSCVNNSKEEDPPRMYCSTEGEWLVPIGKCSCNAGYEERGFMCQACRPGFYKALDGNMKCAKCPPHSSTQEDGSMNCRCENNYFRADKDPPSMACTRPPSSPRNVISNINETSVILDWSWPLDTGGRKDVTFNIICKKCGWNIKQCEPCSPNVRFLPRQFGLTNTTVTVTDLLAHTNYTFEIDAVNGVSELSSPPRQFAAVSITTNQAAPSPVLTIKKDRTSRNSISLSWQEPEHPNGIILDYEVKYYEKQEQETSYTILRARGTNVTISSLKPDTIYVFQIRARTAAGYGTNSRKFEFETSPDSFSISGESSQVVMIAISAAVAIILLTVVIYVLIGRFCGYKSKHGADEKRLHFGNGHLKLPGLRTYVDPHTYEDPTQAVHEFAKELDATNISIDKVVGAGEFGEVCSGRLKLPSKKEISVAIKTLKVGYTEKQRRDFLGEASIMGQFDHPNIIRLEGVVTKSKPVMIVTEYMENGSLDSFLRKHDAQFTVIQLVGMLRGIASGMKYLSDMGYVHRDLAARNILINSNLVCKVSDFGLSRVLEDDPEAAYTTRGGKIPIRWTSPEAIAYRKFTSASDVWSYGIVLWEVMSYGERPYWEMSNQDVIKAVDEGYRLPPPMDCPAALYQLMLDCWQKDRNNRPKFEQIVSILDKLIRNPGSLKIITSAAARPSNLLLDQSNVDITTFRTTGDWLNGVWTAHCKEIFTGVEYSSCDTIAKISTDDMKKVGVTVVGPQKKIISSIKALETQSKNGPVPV
# T33 sequence (P30291 whole entry): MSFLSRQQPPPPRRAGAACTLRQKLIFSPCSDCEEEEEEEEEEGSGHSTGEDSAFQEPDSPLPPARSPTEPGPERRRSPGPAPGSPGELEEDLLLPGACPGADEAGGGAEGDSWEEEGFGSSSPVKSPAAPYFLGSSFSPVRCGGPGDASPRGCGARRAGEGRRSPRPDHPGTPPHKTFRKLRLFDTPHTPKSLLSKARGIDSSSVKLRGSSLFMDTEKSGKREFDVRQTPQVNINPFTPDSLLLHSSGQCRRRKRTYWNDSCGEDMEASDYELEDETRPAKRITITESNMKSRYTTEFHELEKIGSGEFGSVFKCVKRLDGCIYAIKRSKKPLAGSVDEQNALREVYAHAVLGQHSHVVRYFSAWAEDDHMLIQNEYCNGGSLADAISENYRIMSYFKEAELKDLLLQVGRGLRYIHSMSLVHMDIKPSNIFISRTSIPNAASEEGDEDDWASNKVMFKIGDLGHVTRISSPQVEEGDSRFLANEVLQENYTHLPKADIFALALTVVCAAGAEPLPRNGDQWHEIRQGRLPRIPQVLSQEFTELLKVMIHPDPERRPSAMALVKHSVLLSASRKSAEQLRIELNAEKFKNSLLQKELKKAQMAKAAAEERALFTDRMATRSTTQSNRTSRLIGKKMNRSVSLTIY
# T20 sequence (P52564 whole entry): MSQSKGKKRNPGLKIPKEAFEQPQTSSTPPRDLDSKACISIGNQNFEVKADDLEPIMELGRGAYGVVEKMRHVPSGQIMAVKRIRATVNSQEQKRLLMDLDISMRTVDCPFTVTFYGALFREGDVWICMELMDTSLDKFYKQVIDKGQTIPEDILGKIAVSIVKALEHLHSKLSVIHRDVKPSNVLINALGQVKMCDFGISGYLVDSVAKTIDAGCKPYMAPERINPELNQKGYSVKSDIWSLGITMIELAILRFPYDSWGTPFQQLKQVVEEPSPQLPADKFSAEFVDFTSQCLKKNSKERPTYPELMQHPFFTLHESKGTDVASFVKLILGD
compound,measurement,setting,value
"CC(=O)Nc1nc2ccc(-c3cnc(C)c(NC(=O)OC4CCCCC4)c3)cc2s1 [PK68, cyclohexyl (5-(2-acetamidobenzo[d]thiazol-6-yl)-2-methylpyridin-3-yl)carbamate]",Activity%,ACK1; 1 μM,84.41%
same,activity at 1 µM,ACK1,85.5%
same,Activity%,ALK; 1 μM,94.03%
same,activity at 1 µM,ALK,96.1%
same,Activity%,ALK2/ACVR1; 1 μM,101.72%
same,activity at 1 µM,ALK2/ACVR1,103%
same,Activity%,Aurora A; 1 μM,95.24%
same,activity at 1 µM,Aurora A,95.4%
same,Activity%,BMPR2; 1 μM,95.12%
same,activity at 1 µM,BMPR2,95.5%
same,Activity%,CAMK4; 1 μM,84.49%
same,activity at 1 µM,CAMK4,84.8%
same,Activity%,CDK5/p25; 1 μM,92.68%
same,activity at 1 µM,CDK5/p25,94.1%
same,Activity%,CDK9/cyclin T2; 1 μM,88.23%
same,activity at 1 µM,CDK9/cyclin T2,90.7%
same,Activity%,CTK/MATK; 1 μM,93.51%
same,activity at 1 µM,CTK/MATK,93.8%
same,Activity%,DAPK1; 1 μM,87.16%
same,activity at 1 µM,DAPK1,88.5%
same,Activity%,DDR1; 1 μM,80.91%
same,activity at 1 µM,DDR1,81.7%
same,Activity%,DDR2; 1 μM,103.50%
same,activity at 1 µM,DDR2,105%
same,Activity%,EPHA3; 1 μM,98.26%
same,activity at 1 µM,EPHA3,102%
same,Activity%,IR; 1 μM,81.00%
same,activity at 1 µM,IR,81.6%
same,Activity%,JAK2; 1 μM,96.04%
same,activity at 1 µM,JAK2,98.2%
same,Activity%,JNK2; 1 μM,101.11%
same,activity at 1 µM,JNK2,104%
same,Activity%,KDR/VEGFR2; 1 μM,88.68%
same,activity at 1 µM,KDR/VEGFR2,90.3%
same,Activity%,LKB1; 1 μM,102.07%
same,activity at 1 µM,LKB1,103%
same,Activity%,MAPKAPK3; 1 μM,100.67%
same,activity at 1 µM,MAPKAPK3,102%
same,Activity%,MKK6; 1 μM,107.08%
same,activity at 1 µM,MKK6,109%
same,Activity%,MRCKa/CDC42BPA; 1 μM,101.41%
same,activity at 1 µM,MRCKa/CDC42BPA,104%
same,Activity%,MSK2/RPS6KA4; 1 μM,106.42%
same,activity at 1 µM,MSK2/RPS6KA4,107%
same,Activity%,MST3/STK24; 1 μM,100.31%
same,activity at 1 µM,MST3/STK24,102%
same,Activity%,P38b/MAPK11; 1 μM,102.60%
same,activity at 1 µM,P38b/MAPK11,103%
same,Activity%,PAK2; 1 μM,104.24%
same,activity at 1 µM,PAK2,105%
same,Activity%,PHKg2; 1 μM,98.74%
same,activity at 1 µM,PHKg2,100%
same,Activity%,PIM3; 1 μM,101.62%
same,activity at 1 µM,PIM3,104%
same,Activity%,PKCg; 1 μM,95.02%
same,activity at 1 µM,PKCg,95.8%
same,Activity%,PKG1a; 1 μM,90.22%
same,activity at 1 µM,PKG1a,90.3%
same,Activity%,RON/MST1R; 1 μM,99.01%
same,activity at 1 µM,RON/MST1R,99.6%
same,Activity%,RSK4; 1 μM,103.68%
same,activity at 1 µM,RSK4,105%
same,Activity%,SGK2; 1 μM,99.97%
same,activity at 1 µM,SGK2,101%
same,Activity%,WEE1; 1 μM,94.05%
same,activity at 1 µM,WEE1,95.7%
